# PMC11546786, “Designing Analogs of SAAP-148 with Enhanced Antimicrobial and Anti-LPS Activities” (International Journal of Molecular Sciences, 2024)
# Ends that are not written are not given here.
# How the values were obtained:
# [1] = system: Klebsiella pneumonia (1.1736); assay type: cell-based, Klebsiella pneumoniae
# Description: (§1) The LL-37, SAAP-148 and its analogues peptides were synthesized according to the standard Fmoc procedure. The Fmoc-protected resin and monomers are first treated with a basic solvent (piperidine) to remove the amino protecting groups. The carboxyl group of the next amino acid is activated by an activator. The activated monomer reacts with the free amino group to form a peptide bond. These two steps are repeated in a cycle until the synthesis is complete. After synthesis, the peptide is eluted from the column and purified by reverse-phase semipreparative high-performance liquid chromatography as detailed in Table 1. The peptides were dissolved in PBS to create a 1000 μmol/L stock solution for subsequent use. The purity of the synthetic peptide exceeded 95%. Blood samples from healthy donors were obtained from the Fifth Medical Center of Chinese PLA General Hospital (Beijing, China). Human normal lung epithelial cells (BEAS-2B) and mouse mononuclear macrophages cells (RAW 264.7) were sourced from Beyotime Biotechnology (Beijing, China), along with the Enhanced Cell Counting Kit-8 (CCK-8) and nitric oxide detection kit. RPMI-1640 and DMEM were procured from Merck (Darmstadt, Germany), while FBS was obtained from ExCell Bio (Shanghai, China). LPS-B5 (from E. coli 055:B5) was procured from Invivogen (Toulouse, France). Five bacterial strains, including Escherichia coli (1.8732), Pseudomonas aeruginosa (1.2421), Klebsiella pneumonia (1.1736) as Gram-negative bacteria, and Staphylococcus aureus (1.8721) and Staphylococcus epidermidis (1.4260) as Gram-positive bacteria, were procured from the China General Microbiological Culture Collection Centre (CGMCC) (Beijing, China).
# (§2) The antibacterial activities of the peptides against […] were evaluated using a modified version of the Clinical Laboratory and Standards Institute (CLSI) broth microdilution method, as previously described. Briefly, the bacteria were cultured in liquid LB medium (comprising 10 g/L tryptone, 5 g/L yeast extract, and 10 g/L NaCl) at 37 °C until reaching mid-log phase. Subsequently, the bacterial concentration was adjusted to 1 × 10^6 colony-forming units (CFU)/mL. The peptides were then diluted serially with phosphate-buffered saline (PBS), followed by the addition of 50 μL of the diluted peptides to 50 μL of the bacterial suspension in a 96-well plate (Corning Inc., Lowell, MA, USA). After incubating at 37 °C for 18 to 20 h, the absorbance of each well was measured using a multi-well microplate reader (SpectraMax M5; Molecular Devices, Sunnyvale, CA, USA) at 600 nm.
# human erythrocytes = experiment: Haemolytic activity; assay type: cell-based
# Method: The haemolytic activity of the peptides was evaluated using a standard procedure with minor adjustments. Fresh human erythrocytes were washed thrice and subsequently resuspended at 1.25% haematocrit in PBS. Forty microlitres PBS-diluted peptide solution was added to a 96-well plate (Corning Inc., Lowell, MA, USA), and 160 μL of erythrocytes was added. After incubation at 37 °C for 30 min, the samples were centrifuged, and the absorbance of the supernatant was measured at 450 nm using a multi-well microplate reader (SpectraMax M5; Molecular Devices, Sunnyvale, CA, USA) and compared with the 100% haemolysis caused by 0.1% Triton X-100. The percentage of haemolysis was calculated according to the equation: Haemolysis%=Asample−Ablank/Atriton−Ablank×100
# [2] = system: human erythrocytes versus five bacterial strains; experiment: Therapeutic index (MHC/GM of MIC); details: for Fold (TI of analogue compared with SAAP-148): TI change relative to SAAP-148; for TI (MHC/MIC): ratio of MHC to geometric mean of MIC (five strains)
# Method: The geometric mean of minimum inhibitory concentration (MIC) values (GM) from the five strains was calculated to provide a comprehensive assessment of antimicrobial activity, as presented in Table 4.
# The therapeutic index (TI) is a widely utilized parameter for indicating the specificity of antimicrobial agents, which is determined by the ratio of MHC (hemolytic activity) and MIC (antimicrobial activity). Consequently, larger TI values signify greater antimicrobial specificity. The TI can be enhanced through one of three mechanisms: increasing antimicrobial activity, reducing hemolytic activity while maintaining antimicrobial activity, or a combination of both augmenting antimicrobial activity and diminishing hemolytic activity.
# [3] = system: Gram-positive bacteria (S. aureus, S. epidermidis); experiment: Geometric mean of MICs against Gram-positive bacteria; assay type: cell-based; set-up: unit not given here
# Method: as §2
# [4] = system: Staphylococcus epidermidis (1.4260); assay type: cell-based
# Description: as §1, §2
# [5] = system: Escherichia coli (1.8732); assay type: cell-based
# Description: as §1, §2
# [6] = system: Pseudomonas aeruginosa (1.2421); assay type: cell-based
# Description: as §1, §2
# [7] = system: Staphylococcus aureus (1.8721); assay type: cell-based
# Description: as §1, §2
# [8] = system: Gram-negative bacteria (E. coli, P. aeruginosa, K. pneumoniae); experiment: Geometric mean of MICs against Gram-negative bacteria; assay type: cell-based; set-up: unit not given here
# Method: as §2
# [9] = CD spectra, secondary structure by BeStSel; assay type: physicochemical; details: 30 μM SDS as printed, 100 μM peptide, 25 °C
# Method: CD spectra (Figure S1) were acquired using a JASCO J-1500 spectropolarimeter (JASCO Inc., Easton, MD, USA) in 0.1 cm pathlength cells under nitrogen at 25 °C. The spectra were recorded in the range of 190 to 250 nm at a peptide concentration of 100 μM in SDS. Secondary structure was determined using the BeStSel server. Hydropathicity, mean relative hydrophobic moment, and charge of peptides were predicted using the HeliQuest (https://heliquest.ipmc.cnrs.fr/ (accessed on 12 March 2024)). The 3D structure of SAAP-148 and its analogues (Figure S2) was predicted using PEP-FOLD4 servers (https://bioserv.rpbs.univ-paris-diderot.fr/services/PEP-FOLD4/ (accessed on 19 June 2024)).
# five bacterial strains = experiment: MICs against all five bacterial strains (geometric mean, range); assay type: cell-based; set-up: unit not given here; details: geometric mean of MICs against all five bacterial strains
# Method: as §2
# [10] = Reversed-phase HPLC retention time as measure of peptide hydrophobicity; assay type: physicochemical; details: retention time by reverse-phase HPLC, reflects hydrophobicity difference between analogues
# Description: The physicochemical parameters crucial for the antimicrobial activity of AMPs have been identified, encompassing net charge, helicity, hydrophobicity, and amphipathicity. The hydropathicity, mean relative hydrophobic moment, and charge of peptides were predicted using the HeliQuest (https://heliquest.ipmc.cnrs.fr/ (accessed on 12 March 2024)). Lysine is a hydrophilic amino acid, and its substitution leads to a decrease in the hydrophobicity of the SAAP-148 analogue. The anticipated results are consistent, with the degree of reduction in […] varying depending on the position at which lysine is substituted (Table 2). The amphipathicity of the peptides, as denoted by the μH (mean relative hydrophobic moment), is elaborated on in Table 2. The hydrophobic moment of SAAP-148 analogues was decreased except for SAAP-10, which is on account of the substitution occurring on the18th residue. (Figure 1) The 18th residue of SAAP-148 is glutamine, a polar amino acid residue, located at the junction of the hydrophobic and hydrophilic surfaces of the SAAP-148 α-helix. […] The retention time data determined by reversed-phase high-performance liquid chromatography (RP-HPLC) reflects the hydrophobicity difference between peptide analogues. It is well documented that the formation of a hydrophobic-binding domain due to peptide secondary structure can affect peptide interactions with reversed-phase matrices. This effect was observed particularly for amphipathic α-helical peptides. Given this preferred binding domain, amphipathic α-helical peptides are considerably more retentive than non-amphipathic peptides with the same amino acid composition.
# This phenomenon was particularly evident in the case of amphipathic α-helical peptides. […] This discrepancy may be attributed to the lack of a well-defined α-helical structure in SAAP-148 and its analogues (Figure S1).
Substance,MIC K. pneumoniae [1] [µM],haemolytic activity compared with SAAP-148 (human erythrocytes),Fold (TI of analogue compared with SAAP-148) [2],TI (MHC/MIC) [2],GM to G+ [3],MIC S. epidermidis [4] [µM],MIC E. coli [5] [µM],MIC P. aeruginosa [6] [µM],MIC S. aureus [7] [µM],GM to G− [8],Others [9] [%],Turn [9] [%],α-Helix [9] [%],β-Antiparallel [9] [%],β-Parallel [9] [%],MIC (GM) (five bacterial strains),Rt [10] [min]
LKRVWKRVFKLLKRYWRKLKKPVR-NH2 [SAAP-10],25.00,comparable hemolytic activity to SAAP-148,0.64,0.07,12.51,3.13,6.25,6.25,50.00,9.92,0,0,100,0,0,10.88,13.69
LKRVWKRVFKLLKRYWRQLKKPKR-NH2 [SAAP-13],25.00,,0.45,0.05,17.68,6.25,6.25,12.50,50.00,12.5,1.2,0,98.8,0,0,14.36,16.867
LKRVWKRVFKKLKRYWRQLKKPVR-NH2 [SAAP-6],6.25,,15.82,1.74,6.24,1.56,1.56,1.56,25.00,2.48,0,0,84.4,15.6,0,3.59,9.213
LKRVWKRVKKLLKRYWRQLKKPVR-NH2 [SAAP-5],6.25,,10.45,1.15,8.85,3.13,1.56,6.25,25.00,3.94,0,0,100,0,0,5.44,10.681
LKRVWKRVFKLLKRYWRQKKKPVR-NH2 [SAAP-11],100.00,,0.45,0.05,12.51,3.13,6.25,6.25,50.00,15.75,0,0,100,0,0,14.36,15.926
LKRVWKRVFKLLKRYKRQLKKPVR-NH2 [SAAP-9],12.50,,9.09,1.00,12.51,3.13,3.13,1.56,50.00,3.94,0,0,100,0,0,6.25,11.941
LKRVKKRVFKLLKRYWRQLKKPVR-NH2 [SAAP-3],6.25,,72.73,8.00,17.69,3.13,1.56,3.13,100.00,3.12,0,0,100,0,0,6.25,11.208
LKRVWKRVFKLLKRKWRQLKKPVR-NH2 [SAAP-8],25.00,,6,0.66,6.24,1.56,1.56,1.56,25.00,3.93,0,0,100,0,0,4.74,13.475
